Measurements: US4325951A, “1-Oxadethiacephalosporin derivatives and antibacterial use thereof” (Meiji Seika Kaisha, Ltd., priority 1979, dated 1982)
Values after ≈ are worked out from the molar mass of the structure shown. Structures can show the parent of a compound that is named as a salt. Where two headings read alike, the source gives them in different places.

Experiments:
Sta. aureus 209P JC-1 = assay: antibacterial spectrum, MIC (Table 2); assay type: cell-based; details: Staphylococcus aureus, nutrient agar, 37° C., 20 hours
Sta. aureus Smith (I) = assay: antibacterial spectrum, MIC (Table 2); assay type: cell-based; details: Staphylococcus aureus, nutrient agar, 37° C., 20 hours
B. subtilis ATCC 6633 = assay: antibacterial spectrum, MIC (Table 2); assay type: cell-based; details: Bacillus subtilis, ATCC6633, nutrient agar, 37° C., 20 hours
E. coli W 3630 RGN 823 = assay: microbe, parasite or virus in culture; assay type: cell-based; details: Escherichia coli, W3630RGN823, 20 h
E. coli W 3630 RGN 238 = assay: microbe, parasite or virus in culture; assay type: cell-based; details: Escherichia coli, W3630RGN238, 20 h
E. coli ML 1410 = assay: antibacterial spectrum, MIC (Table 2); assay type: cell-based; details: Escherichia coli, ML1410, nutrient agar, 37° C., 20 hours
Kleb. pneumoniae GN 69 = assay: antibacterial spectrum, MIC (Table 2); assay type: cell-based; details: Klebsiella pneumoniae, GN69, nutrient agar, 37° C., 20 hours
Pro. mirabilis GN 79 = assay: antibacterial spectrum, MIC (Table 2); assay type: cell-based; details: Proteus mirabilis, GN79, nutrient agar, 37° C., 20 hours
Sal. typhimurium LT-2 = assay: antibacterial spectrum, MIC (Table 2); assay type: cell-based; details: Salmonella enterica, nutrient agar, 37° C., 20 hours
[1] = system: Shigella dysenteriae Shigae; assay: microbe, parasite or virus in culture; assay type: cell-based; details: 20 h
Pro. vulgaris GN 76 = assay: antibacterial spectrum, MIC (Table 2); assay type: cell-based; details: Proteus vulgaris, GN76, nutrient agar, 37° C., 20 hours
Pro. morganii 1510 = assay: antibacterial spectrum, MIC (Table 2); assay type: cell-based; details: Morganella morganii, nutrient agar, 37° C., 20 hours
Citro freundii GN 346/16 = assay: antibacterial spectrum, MIC (Table 2); assay type: cell-based; details: nutrient agar, 37° C., 20 hours
Ps. aeruginosa MB-3829 = assay: antibacterial spectrum, MIC (Table 2); assay type: cell-based; details: Pseudomonas aeruginosa
Ps. cepacia M-0527 = assay: antibacterial spectrum, MIC (Table 2); assay type: cell-based; details: Burkholderia cepacia, M0527, nutrient agar, 37° C., 20 hours
Escherichia coli No. 29 [2] = assay: therapeutic treatment of bacterial infection in mice, ED50; assay type: in vivo; details: male ICR mice; E. coli No. 29 intraperitoneally, 2.0×10^7 cells per mouse; subcutaneous injection 30 minutes after inoculation
Method: Thirty minutes after the inoculation, the mice were each treated by subcutaneous injection of 0.2 ml of a solution of the test compound in physiological saline. In this way, the ED50 value of the test compounds was determined. Cefoxitin and the 6059-S Compound (di-Na salt) were also tested in the same manner as above, for the comparison purpose.

Escherichia coli No. 29 [3] = assay: Minimum Inhibitory Concentration "in vitro" (Table 1); assay type: cell-based
Escherichia coli GN = assay: as above; assay type: cell-based

Structure (SMILES)	MIC (Sta. aureus 209P JC-1)	MIC (Sta. aureus Smith (I))	MIC (B. subtilis ATCC 6633)	MIC (E. coli W 3630 RGN 823)	MIC (E. coli W 3630 RGN 238)	MIC (E. coli ML 1410)	MIC (Kleb. pneumoniae GN 69)	MIC (Pro. mirabilis GN 79)	MIC (Sal. typhimurium LT-2)	MIC [1]	MIC (Pro. vulgaris GN 76)	MIC (Pro. morganii 1510)	MIC (Citro freundii GN 346/16)	MIC (Ps. aeruginosa MB-3829; MB3829, 20 h)	MIC (Ps. cepacia M-0527)	ED50 value (Escherichia coli No. 29 [2])	MIC (Escherichia coli No. 29 [3])	MIC (Escherichia coli GN)	MIC (Ps. aeruginosa MB-3829; MB3829, Ps. aeruginosa MB-3829, nutrient agar, 37° C., 20 hours, read-out: MIC)
CO[C@@]1(NC(=O)C(C(=O)O)c2ccc(O)cc2)C(=O)N2C(C(=O)O)=C(CSc3nnnn3C)CO[C@@H]21 (stereo partly drawn) [6059-S Compound, 7β-(α-p-hydroxyphenyl-α-carboxyacetoamido)-7α-methoxy-3-[(1-methyl-1H-tetrazole-5-yl)thiomethyl]-1-oxadethia-3-cephem-4-carboxylic acid, reference compound]	6.25 µg/mL (≈ 12 µM)	6.25 µg/mL (≈ 12 µM)	25 µg/mL (≈ 48 µM)	0.05 µg/mL (≈ 0.0961 µM)	0.2 µg/mL (≈ 0.384 µM)	0.1 µg/mL (≈ 0.192 µM)	0.39 µg/mL (≈ 0.749 µM)	0.39 µg/mL (≈ 0.749 µM)	0.2 µg/mL (≈ 0.384 µM)	0.1 µg/mL (≈ 0.192 µM)	0.39 µg/mL (≈ 0.749 µM)	0.39 µg/mL (≈ 0.749 µM)	0.1 µg/mL (≈ 0.192 µM)	3.13 µg/mL (≈ 6.01 µM)	6.25 µg/mL (≈ 12 µM)	0.16 mg/mouse	–	–	–
CO[C@@]1(NC(=O)Cc2cccs2)C(=O)N2C(C(=O)O)=C(COC(N)=O)CS[C@@H]21 [Cefoxitin, reference compound]	–	–	–	–	–	–	–	–	–	–	–	–	–	–	–	0.50 mg/mouse	–	–	–
CO[C@@]1(NC(=O)CSC[C@@H](N)C(=O)O)C(=O)N2C(C(=O)O)=C(CSc3nnnn3C)CO[C@@H]21 [Example 1, 7β-[(2D-2-amino-2-carboxy)ethylthioacetoamido]-7α-methoxy-3-[(1-methyl-1H-tetrazol-5-yl)thiomethyl]-1-oxadethia-3-cephem-4-carboxylic acid sodium salt]	3.13 µg/mL	1.56 µg/mL	1.56 µg/mL	≤ 0.025 µg/mL	0.39 µg/mL	0.39 µg/mL	0.78 µg/mL	0.2 µg/mL	0.39 µg/mL	0.2 µg/mL	0.39 µg/mL	0.78 µg/mL	0.78 µg/mL	–	3.13 µg/mL	0.03 mg/mouse	0.39 µg/mL	0.39 µg/mL	12.5 µg/mL
Cn1nnnc1SCC1=C(C(=O)O)N2C(=O)[C@@H](NC(=O)CSC[C@@H](N)C(=O)O)[C@H]2OC1 [Example 2, 7β-[(2D-2-Amino-2-carboxy)ethylthioacetoamido]-3-[(1-methyl-1H-tetrazol-5-yl)thiomethyl]-1-oxadethia-3-cephem-4-carboxylic acid sodium salt]	–	–	–	–	–	–	–	–	–	–	–	–	–	–	–	0.05 mg/mouse	0.39 µg/mL	3.13 µg/mL	–
CO[C@@]1(NC(=O)CSC[C@@H](N)C(=O)O)C(=O)N2C(C(=O)[O-])=C(C[n+]3ccc(C(N)=O)cc3)CO[C@@H]21 [Example 3, 7β-[(2D-2-Amino-2-carboxy)ethylthioacetoamido]-7α-methoxy-3-[(4-carbamoylpyridinium)methyl]-1-oxadethia-3-cephem-4-carboxylic acid]	–	–	–	–	–	–	–	–	–	–	–	–	–	–	–	–	0.78 µg/mL (≈ 1.53 µM)	0.78 µg/mL (≈ 1.53 µM)	–
